Test results published in patent publication US10617119B1, “Piscicide composition” (priority 2018, dated 2020).

Test system: Koi
Assay: Feeding of toxic pellets to Koi in aquatic tanks (consumption, mortality)
Type: in vivo
Conditions: juvenile Koi

[O]=[Ca] [calcium oxide]
mortality / toxicity: did not kill Koi

CC(=O)Nc1ccc(O)cc1 [acetaminophen]
mortality / toxicity: None of the Koi died
